What was measured:
[1] = system: MDA-MB-231; test: Cell viability assay (CellTiter Glo), MDA-MB-231; format: cell-based; conditions: Homo sapiens, 72 h incubation, mean of independent triplicate experiments, read-out: In vitro anti-proliferative activity IC50, MDA-MB-231 ER- PR- HER-
Description: (§1) The antiproliferative activity of compound I as well as its newly synthesised analogues (5a–i) was evaluated in vitro against the three human breast cancer cell lines MDA-MB-231 (TNBC), T47D (ER^+, HER^−), and BT474 (ER^+, HER^+) as well as a human pancreatic cancer cell line MIAPaCa2. The seeding of the corresponding cell lines started one day before incubation, which lasted for 72 h with the different concentrations of the tested compounds. CellTiter Glo reagent (25 μL) was added to the cell plate. The luminescence was analysed after 10 min using a PerkinElmer Envision instrument. The test compounds were used at ten different triplicate concentrations in half log increments up to 100 μM.

[2] = system: MIAPaCa2; test: Cell viability assay (CellTiter Glo), MIAPaCa2; format: cell-based; conditions: Homo sapiens, MIA PaCa-2, 72 h incubation, mean of independent triplicate experiments, read-out: In vitro anti-proliferative activity IC50, MIAPaCa2
Description: as §1

[3] = Turbidimetric aqueous solubility; format: physicochemical; conditions: 37 °C, 2 h
Description: Both the estimated precipitation range (lower and upper bound) and a mid-range value were measured. Nicardipine and pyrene were used as control compounds.
The test compound was diluted in buffer to give a range of concentrations (1, 3, 10, 30, and 100 μM; final DMSO concentration 1%) and incubated at 37 °C for 2 hr.
The test compound (10 mM in DMSO) was serially diluted to give solutions of 0.1, 0.3, 1, and 3 mM in DMSO. Each test compound concentration was then further diluted 1 to 100 in buffer (typically 0.01 M phosphate buffered saline pH 7.4) so that the final DMSO concentration was 1%, and the final test compound concentrations were 1, 3, 10, 30, and 100 μM. The experiment was performed at 37 °C and each concentration was incubated in 7 replicate wells. The plates were incubated for 2 h at 37 °C before the absorbance was measured at 620 nm. Nicardipine and pyrene were included as control compounds. The solubility of nicardipine is pH dependent whereas the solubility of pyrene is pH independent.
An estimated precipitation range (lower and upper bound) and a calculated mid-range value were returned, along with any relevant comments, in the form of an Excel spreadsheet.

[4] = Microsomal metabolic stability
Description: Half-life (t1/2) values were measured at five time points.
Intrinsic clearance values (CLint) with standard error and t1⁄2 values were measured.
The final incubation volume was 50 μL. A minus cofactor control incubation was included for each compound tested where 0.1 M phosphate buffer pH 7.4 was added instead of NADPH (minus NADPH). Two control compounds were included with each species. All incubations were performed singularly for each test compound.
The reactions were stopped by transferring 20 μL of incubate to 60 μL methanol at the appropriate time points. The termination plates were centrifuged at 2500 rpm for 20 min at 4 °C to precipitate the protein.
Following protein precipitation, the sample supernatants were combined in cassettes of up to 4 compounds, the internal standard was added, and samples were analysed using Cyprotex generic LC-MS/MS conditions.
From a plot of ln peak area ratio (compound peak area/internal standard peak area) against time, the gradient of the line was determined.

[5] = system: MDA-MB-231, T47D, BT474, and MIAPaCa2; test: Cell viability assay, statements across the four cell lines; format: cell-based, human; conditions: three human breast and one pancreatic cancer cell line, up to 100 μM
Description: as §1

[6] = system: MDA-MB-231 cells; test: Cell proliferation assay (7-day cell counting); format: cell-based, human; conditions: 7-day proliferation, 1 μM, vs vehicle-only control
Description: To assess proliferation, cells were seeded at 4.2 × 10^5 cells/mL in 24-well plates. Following 24 h, the media were replaced with fresh RPMI + 5% FCS, in the presence or absence of treatments and a selection of wells counted (day 0 counts). Cells were subsequently counted each day up to 7 days to assess proliferation. Briefly, this entailed the removal of old media and the addition of trypsin/EDTA in order to lift cells before passing gently through a 25 G needle to achieve a single-cell suspension. The resulting solution was then added to isoton in a counting cup and the cell number was determined using a Coulter Multisizer III (Beckman Coulter Life Sciences, Indianopolis, IN, USA) Each well was counted twice with all conditions performed in triplicate.

[7] = system: MDA-MB-231 cells; test: Boyden chamber migration; format: cell-based, human; conditions: 18 h Boyden chamber
Description: Migration was assessed utilising 24-well, transmembrane permeable support plates (Corning Lifesciences, Corning, New York, NY, USA) with 6.5 mm microporous membrane (8 μm pore size) inserts, each coated with 10 μg/mL fibronectin in sterile PBS. Inserts were placed into wells containing RPMI + 5% FCS (± treatments), before cells in serum-free RPMI were seeded into the top portion of each insert at a density of 50,000 cells/mL. Cells were then incubated at 37 °C and 5% CO2 for 18 h. After this migratory period was completed, cells were fixed to the underside of the inserts in 3.7% PFA in PBS and stained with 0.5% crystal violet solution. Resulting inserts were then imaged using a standard light microscope.

[8] = target: T1, FAK (Homo sapiens, UniProt Q05397); test: Western blotting of FAK activity; format: cell-based; conditions: MDA-MB-231, Western blot
T1 construct: in an in vitro model of TNBC, MDA-MB-231; endogenous in cells; host or cells: MDA-MB-231 (human triple negative breast cancer cells)
Text: This was expected, given that this compound limits protein–protein scaffolding interaction rather than kinase activity and subsequent phosphorylation of key FAK residues.

[9] = system: MDA-MB-231 cells; test: Immunofluorescence of active FAK (FAK Y861) and vinculin; format: cell-based, human
Description: The resulting fixed cells were subsequently permeabilised with 0.2% Triton-X100 in PBS for 8 min. This was proceeded by a 40 min block in 10% normal goat serum (in 1% BSA in PBS) prior to 30 min primary antibody incubation. Both FAK^Y861 and vinculin antibodies were diluted to working concentration (1:100 and 1:200, respectively) in 1% BSA in PBS. […] Slides were viewed using a 63X oil immersion lens on a Leica DM IRE2 microscope (Leica Microsystems, Wetzlar, Germany).

[10] = target: hERG potassium channel (Homo sapiens, UniProt Q12809); test: hERG channel inhibition (IonWorks automated patch clamp, CHO-hERG cells)
Description: Mammalian cells expressing the hERG potassium channel were dispensed into 384-well planar arrays and hERG tail-currents measured by whole-cell voltage-clamping. A range of concentrations of the test compound was then added to the cells and a second recording of the hERG current was made. […] IC50 is delivered, standard error (SE IC50), and n (number of data points used to calculate IC50) for the test compound. The experiments were performed on an Ion Works TM automated patch clamp instrument (Molecular Devices LLC (San Jose, California, United States)), which simultaneously performs electrophysiology measurements for 48 single cells in a specialised 384-well plate (PatchPlateTM(manufacturer, city, state if USA or Canada, country)). All cell suspensions, buffers, and test compound solutions were at room temperature during the experiment.
The cells used were Chinese hamster ovary (CHO) cells stably transfected with hERG (cell-line obtained from Cytomyx, UK). A single-cell suspension was prepared in extracellular solution (Dulbecco’s phosphate buffered saline with calcium and magnesium pH 7.2) and aliquots added automatically to each well of a Patch Plate TM. The cells were then positioned over a small hole at the bottom of each well by applying a vacuum beneath the plate to form an electrical seal. The vacuum was applied through a single compartment common to all wells which was filled with intracellular solution (buffered to pH 7.2 with HEPES). The resistance of each seal was measured via a common ground-electrode in the intracellular compartment and individual electrodes placed into each of the upper wells.
Electrical access to the cell was then achieved by circulating a perforating agent, amphotericin B, underneath the PatchPlateTM. The pre-compound hERG current was then measured. An electrode was positioned in the extracellular compartment and a holding potential of −80 mV applied for 15 s. The hERG channels were then activated by applying a depolarising step to +40 mV for 5 s and then clamped at −50 mV for 4 s to elicit the hERG tail current, before returning to −80 mV for 0.3 s.
The Ion Works TM instrument automatically adds test compound dilutions to the upper wells of the PatchPlateTM. The test compound was left in contact with the cells for 300 s before recording currents using the same voltage-step protocol as in the pre-compound scan.
Each concentration was tested in 4 replicate wells on the PatchPlateTM (maximum of 24 data points). Filters were applied to ensure only acceptable cells were used to assess hERG inhibition.
For each replicate, the hERG response was calculated using the following equation:% hERG response = [Post-compound current (nA)/Pre-compound current (nA)] × 100(5)

[11] = buffered aqueous solution (PBS pH 7.4, 1% DMSO)
[12] = human, pooled liver microsomes, pH 7.4
[13] = MDA-MB-231, 1 h serum stimulated

T1 sequence (Q05397 whole entry): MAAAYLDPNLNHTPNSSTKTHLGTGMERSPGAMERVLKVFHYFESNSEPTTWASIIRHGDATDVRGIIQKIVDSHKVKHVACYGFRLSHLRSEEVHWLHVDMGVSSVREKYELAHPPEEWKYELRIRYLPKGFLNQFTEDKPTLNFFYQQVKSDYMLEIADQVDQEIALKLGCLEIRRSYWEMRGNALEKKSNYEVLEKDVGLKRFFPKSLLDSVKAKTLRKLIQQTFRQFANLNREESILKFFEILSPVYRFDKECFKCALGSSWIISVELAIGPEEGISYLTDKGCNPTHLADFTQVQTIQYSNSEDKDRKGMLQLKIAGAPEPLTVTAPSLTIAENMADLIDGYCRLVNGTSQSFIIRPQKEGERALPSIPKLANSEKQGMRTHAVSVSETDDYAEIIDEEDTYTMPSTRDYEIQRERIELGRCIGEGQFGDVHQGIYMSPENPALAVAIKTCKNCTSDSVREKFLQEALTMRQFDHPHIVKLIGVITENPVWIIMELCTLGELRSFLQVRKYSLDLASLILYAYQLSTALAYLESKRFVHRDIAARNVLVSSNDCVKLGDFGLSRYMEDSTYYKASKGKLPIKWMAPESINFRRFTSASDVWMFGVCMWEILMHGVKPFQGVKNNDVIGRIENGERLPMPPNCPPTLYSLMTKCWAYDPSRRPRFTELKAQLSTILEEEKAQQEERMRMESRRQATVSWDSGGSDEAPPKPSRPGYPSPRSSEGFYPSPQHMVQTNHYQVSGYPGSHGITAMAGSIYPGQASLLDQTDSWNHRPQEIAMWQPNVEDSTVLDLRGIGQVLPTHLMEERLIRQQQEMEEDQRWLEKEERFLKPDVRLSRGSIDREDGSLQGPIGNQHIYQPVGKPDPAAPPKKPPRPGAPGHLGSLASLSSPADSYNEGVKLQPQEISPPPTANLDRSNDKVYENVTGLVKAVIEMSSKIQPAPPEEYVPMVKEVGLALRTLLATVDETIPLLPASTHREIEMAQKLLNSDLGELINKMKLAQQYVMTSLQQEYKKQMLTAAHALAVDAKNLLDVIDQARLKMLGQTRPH
hERG potassium channel, sequence (Q12809 whole entry): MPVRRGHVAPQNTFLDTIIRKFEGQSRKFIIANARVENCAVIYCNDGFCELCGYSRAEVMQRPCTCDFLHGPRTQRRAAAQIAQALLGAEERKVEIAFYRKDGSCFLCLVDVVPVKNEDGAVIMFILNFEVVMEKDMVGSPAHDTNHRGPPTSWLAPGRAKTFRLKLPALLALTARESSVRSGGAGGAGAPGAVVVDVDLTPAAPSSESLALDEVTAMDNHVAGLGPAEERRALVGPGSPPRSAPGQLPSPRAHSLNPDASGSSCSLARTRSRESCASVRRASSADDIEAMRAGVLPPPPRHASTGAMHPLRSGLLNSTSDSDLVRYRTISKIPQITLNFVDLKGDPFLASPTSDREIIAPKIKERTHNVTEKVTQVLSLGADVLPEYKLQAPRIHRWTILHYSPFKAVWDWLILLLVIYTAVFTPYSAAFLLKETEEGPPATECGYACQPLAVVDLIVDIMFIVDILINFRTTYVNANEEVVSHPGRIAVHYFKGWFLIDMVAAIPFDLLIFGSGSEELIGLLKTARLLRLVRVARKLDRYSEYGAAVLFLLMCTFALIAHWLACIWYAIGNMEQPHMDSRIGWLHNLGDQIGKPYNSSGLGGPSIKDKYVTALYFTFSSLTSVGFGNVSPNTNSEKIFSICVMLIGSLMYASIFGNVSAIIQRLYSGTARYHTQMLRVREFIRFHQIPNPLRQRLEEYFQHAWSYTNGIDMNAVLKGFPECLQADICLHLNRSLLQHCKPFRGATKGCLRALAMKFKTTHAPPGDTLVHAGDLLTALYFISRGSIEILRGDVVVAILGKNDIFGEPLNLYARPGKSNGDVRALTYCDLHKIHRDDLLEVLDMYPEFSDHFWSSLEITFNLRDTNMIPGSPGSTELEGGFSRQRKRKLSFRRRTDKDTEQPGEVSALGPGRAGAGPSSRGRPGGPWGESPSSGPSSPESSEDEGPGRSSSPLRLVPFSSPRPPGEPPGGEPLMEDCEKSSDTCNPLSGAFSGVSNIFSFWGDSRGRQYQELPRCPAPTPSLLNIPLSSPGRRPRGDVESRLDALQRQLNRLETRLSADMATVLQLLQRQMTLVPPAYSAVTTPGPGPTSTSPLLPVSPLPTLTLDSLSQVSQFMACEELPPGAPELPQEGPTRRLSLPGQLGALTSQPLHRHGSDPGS

SMILES: CC(C)(C)c1ccc(C(CN)c2ccc(Cl)cc2)cc1 (stereo not drawn) [Compound I]
- IC50 [1]: 6.37 µM
- IC50 [2]: 5.66 µM
- Estimated Precipitation Range, Calculated Mid-Range [3, 11]: >100 µM
- Estimated Precipitation Range, Lower Bound [3, 11]: 100 µM
- Estimated Precipitation Range, Upper Bound [3, 11]: >100 µM
- Aqueous solubility (in words) ([3]; turbidimetric): high aqueous solubility
- Compound Remaining (% of 0 min), 0 min ([4]; human liver microsomes, 0 min): 100 % of 0 min
- Compound Remaining (% of 0 min), 5 min ([4]; human liver microsomes, 5 min): 89.4 % of 0 min
- Compound Remaining (% of 0 min), 15 min ([4]; human liver microsomes, 15 min): 92.3 % of 0 min
- Compound Remaining (% of 0 min), 30 min ([4]; human liver microsomes, 30 min): 77.9 % of 0 min
- Compound Remaining (% of 0 min), 45 min ([4]; human liver microsomes, 45 min): 81.3 % of 0 min
- Compound Remaining (% of 0 min), Control ([4]; human liver microsomes, minus NADPH control, 45 min): 95.7 % of 0 min
- half-life at 3 μM [4, 12]: 2.53 h
- microsomal CLint at 3 μM [4, 12]: 9.1 µL/min/mg
- Anti-proliferative activity (in words) across the four cell lines [5]: low micromolar antiproliferative activity
- Proliferation rates of MDA-MB-231 cells [6]: significantly reduce proliferation rates
- Serum-stimulated migration [7]: significant reduction in serum-stimulated migration
- Activity of FAK Y397 / FAK Y925 (phosphorylation) [8]: no significant changes
- Stability of total FAK protein [8]: no changes in the stability of total FAK protein
- Number of focal adhesions/cell [9, 13]: significant increase in focal adhesions
- Size of focal adhesions [9, 13]: no effect on the size of focal adhesions
- Localisation of FAK to the cell periphery ([9]; MDA-MB-231, 1 h serum stimulated, vs vehicle-only controls): increased localisation of FAK to the cell periphery
- Active FAK throughout the cytoplasm ([9]; MDA-MB-231, versus PF271 treated cells): significantly more active FAK displayed throughout the cytoplasm
- IC50 [10]: 5.47 µM

— paper PMC7435868, “Structure-Based Virtual Screening, Synthesis and Biological Evaluation of Potential FAK-FAT Domain Inhibitors for Treatment of Metastatic Cancer” (Molecules, 2020)
